# Legend:
# ATase2 mRNA = test: Real-time quantitative PCR of ATase2 mRNA after ceramide treatment; assay type: cell-based, human; settings: H4 and SH-SY5Y cells; C6-ceramide 10 μM; seen as early as 4 hours, still evident after 4 days
# Procedure: (§1) Chinese Hamster Ovary (CHO) cells were grown in DMEM (Gibco BRL) supplemented with 10% fetal bovine serum (FBS) and penicillin/streptomycin (Mediatech, Inc., Herndon, Va.) as described before (Puglielli et al., 2001, Nat. Cell Biol. 3: 905-912; Puglielli et al., 2003, J. Biol. Chem. 278: 19777-19783). Cells were maintained in a humidified atmosphere with 5% CO2. For ceramide treatment, C6-ceramide (simply called “ceramide”) was administered in the absence of serum and at the final concentration of 10 μM; treatment was started when cells were ˜80% confluent and carried out for the time specified. […]
# (§2) RNA quantification was performed by real-time PCR in an ABI PRISM® 7000 Sequence Detection System using SYBR® Green PCR Master Mix (Applied Biosystems). […] Delta-delta Ct values were normalized with those obtained from the amplification of GAPDH and were expressed as fold-change over control. […]
# (§3) The 4-hour treatment was performed in the presence of 0.5% fetal bovine serum whereas the 4-days treatment was performed in the presence of 10% fetal bovine serum, as previously described (Puglielli et al., 2003, J. Biol. Chem. 278: 19777-19783; Costantini et al., 2007, Biochem. J. 407: 383-395)). Results are expressed as fold ±S.D. of control (no treatment). […] Results are expressed as fold ±S.D. of age-matched controls.
# BACE1 = settings: different cell lines; Costantini et al., 2005; cited from earlier work
# ATase1 mRNA = test: Real-time quantitative PCR of ATase1 mRNA after ceramide treatment; assay type: cell-based, human; settings: H4 and SH-SY5Y cells; C6-ceramide 10 μM; seen as early as 4 hours, still evident after 4 days
# Procedure: as §1, §2, §3
smiles,measurement,setting,value
"CCCCCCCCCCCCC/C=C/[C@@H](O)[C@H](CO)NC(=O)CCCCC [ceramide, C6-ceramide]",mRNA levels of ATase2 (transcription),ATase2 mRNA,marked activation of transcription
same,acetylation and stabilization of BACE1,BACE1,increased acetylation and stabilization of BACE1
same,mRNA levels of ATase1 (transcription),ATase1 mRNA,marked activation of transcription

# — patent US20090136977A1, “NOVEL TARGETS FOR ALZHEIMER'S DISEASE” (priority 2007, published 2009)
